Data taken from patent publication US20250382305A1 (PTC THERAPEUTICS, INC., priority 2022, published 2025).

What was measured:
ATXN3 pre-mRNA = assay: RT-qPCR Assay to Quantify Exon 4 Skipping in ATXN3 pre-mRNA in Cells; type: cell-based; details: percent exon 4 skipping in ATXN3 pre-mRNA, RT-qPCR of cell lysates; average IC50
Experimental: RT-qPCR Assay to Quantify Exon 4 Skipping in ATXN3 pre-mRNA in Cells
(§1) Test compounds were serially diluted 3.16-fold in 100% DMSO to generate a 7-point concentration curve. Aliquots of 0.5 μL of diluted compounds were transferred to a 96-well flat bottom plate by a liquid handler. An aliquot of 0.5 μL DMSO was also transferred to separate wells and used as controls. Duplicate samples were set up for each compound concentration and for the DMSO control.
Cells were thawed and incubated in cell culture media (DMEM, 10% FBS, and 1% antibiotic cocktail) for 72 h. Cells were trypsinized, counted, and re-suspended to a concentration of 100,000 cells/mL in cell culture media. A 100 μL aliquot of the cell suspensions were plated at 10,000 cells per well in the compound containing 96 well microtiter plate and incubated for in a cell culture incubator (37° C., 5% CO2, 100% relative humidity).
After 24 h, media was aspirated from the cells and 50 μL of the RCL2 lysis buffer (10 mM Tris-HCL pH 7.4, 150 mM NaCl, 0.33% IGEPAL® CA-630) was added to each well and incubated at RT for 1 min. Chilled nuclease free water (50 μL per well) was added and the plates were immediately transferred on ice. After 1 min on ice, plates were frozen at −80° C. overnight.
Preparation of RT-qPCR Reaction Mixture:
An aliquot of 2 μL/well of the cell lysates was transferred using the liquid handler to the Armadillo 384-Well PCR plate containing 8 μL/well of the RT-qPCR reaction mixture that was prepared as detailed above. The plates were then sealed with MicroAmp™ Optical Adhesive Film followed by spinning down for 1 min and placed in the CFX384 thermocycler (BioRad).
The RT-qPCR was carried out at the following temperatures for the indicated time: • Step 1: 48° C. (30 min) • Step 2: 95° C. (10 min) • Step 3: 95° C. (15 sec) • Step 4: 60° C. (1 min); then, repeated Steps 3 and 4 for a total of 40 cycles.
The percent exon 4 skipping was calculated for each dose of compound treatment using Equations 1 and 2.
Data were fit to a dose response curve and the IC50 was interpolated using XLfit® statistical and curve fitting package.
(§2) An average IC50>1 μM is indicated by one star (*), between >0.3 μM and ≤1 μM is indicated by two stars (**), between >0.03 μM and ≤0.3 μM is indicated by three stars (***), and ≤0.03 μM is indicated by four stars (****).

[1] = system: Total ATXN3 (tATXN3) protein; assay: Endogenous Total ATXN3 (tATXN3) Protein Assay (MSD immunoassay of cell lysates); type: cell-based; details: average IC50, total ATXN3 protein in cell lysate after 48 h with compound (Table 1)
Experimental: Endogenous Total ATXN3 (tATXN3) Protein Assay
Meso Scale Discovery (MSD) 96-well or 384-well plates were coated overnight at 4° C. with Ataxin 3 mouse monoclonal antibody (Invitrogen, MA3-082) at a concentration of 0.5 μg/mL in PBS (30 μL per well). Plates were then washed three times with 300 μL wash buffer (0.05% TWEEN®-20, polyethylene glycol sorbitan monolaurate, in PBS) and blocked (Meso Scale Diagnostics, R93BA-1; 5% BSA in PBS) for 2 h at RT with rotational shaking and then washed three times with wash buffer.
as §1
Cells were thawed and incubated in cell culture media (DMEM, 10% FBS, and 1% antibiotic cocktail) for 72 h. Cells were trypsinized, counted, and re-suspended to a concentration of 100,000 cells/mL in cell culture media. A 100 μL aliquot of the cell suspensions were plated at 10,000 cells per well in the compound containing 96 well microtiter plate and incubated for in a cell culture incubator (37° C., 5% CO2, 100% relative humidity). After 48 h, the medium was removed and 50-100 μL of lysis buffer (Meso Scale Diagnostics, R60TX-2) containing 1× halt protease inhibitor cocktail of (Thermo Scientific, Halt™ Protease Inhibitor Cocktail, 78430) per well was added to cells to provide a “cell lysate”. The plate was placed on a shaker at 4° C. for 30 minutes, then stored at −80° C.
Cell lysate samples (25 μL) were transferred to the antibody-coated MSD plate and incubated overnight at 4° C. After removal of the lysates, the plate was washed three times with wash buffer, and 25 μL of Ataxin 3 recombinant rabbit monoclonal antibody (Invitrogen, #702788) secondary antibody (diluted to 0.25 μg/mL in 0.05% TWEEN®-20 in blocking buffer) was added to each well and incubated with shaking for 1-2 h at room temperature. Following incubation with the secondary antibody, the wells were rinsed with wash buffer and then 25 μL of Anti Rabbit Antibody Goat SULFO-TAG Labeled (Meso Scale Diagnostics, R32AB-1) detecting antibody (diluted to […] in 0.05% TWEEN®-20 in blocking buffer) was added to each well and incubated with shaking for 1 h at room temperature. After rinsing three times with wash buffer, 150 μL of Read Buffer T with surfactant (tris-based buffer containing tripropylamine, Meso Scale Diagnostics, R92TC-1) were added to each empty well, and the plate was imaged on a SI 6000 imager (MSD) according to manufacturers' instructions provided for 96- or 384-well plates.
as §2

Molecule	IC50 (ATXN3 pre-mRNA)	IC50 [1]
2-((2R,3R)-3-aminotetrahydro-2H-pyran-2-yl)-5-chloro-3-iodo-N-(thiophen-2-ylmethyl)thieno[3,2-b]pyridin-7-amine and 2-((2S,3S)-3-aminotetrahydro-2H-pyran-2-yl)-5-chloro-3-iodo-N-(thiophen-2-ylmethyl)thieno[3,2-b]pyridin-7-amine [Compound 266]	30 to 300 nM	30 to 300 nM
2-((1R,2R)-2-amino-5,5-dimethylcyclohexyl)-3-bromo-5-chloro-N-(thiophen-2-ylmethyl)thieno[3,2-b]pyridin-7-amine and 2-((1S,2S)-2-amino-5,5-dimethylcyclohexyl)-3-bromo-5-chloro-N-(thiophen-2-ylmethyl)thieno[3,2-b]pyridin-7-amine [Compound 149]	30 to 300 nM	30 to 300 nM
N[C@@H]1CC=CC[C@H]1c1sc2c(NCc3ccncc3)nc(Cl)nc2c1Cl [Compound 440, 6-((1R,6R)-6-aminocyclohex-3-en-1-yl)-2,7-dichloro-N-(pyridin-4-ylmethyl)thieno[3,2-d]pyrimidin-4-amine]	300 to 1000 nM	> 1000 nM
5-(5-chloro-2-((1R,6R)-6-(methylamino)cyclohex-3-en-1-yl)-7-((thiophen-2-ylmethyl)amino)thieno[3,2-b]pyridin-3-yl)pent-4-yn-1-ol and 5-(5-chloro-2-((1S,6S)-6-(methylamino)cyclohex-3-en-1-yl)-7-((thiophen-2-ylmethyl)amino)thieno[3,2-b]pyridin-3-yl)pent-4-yn-1-ol [Compound 288]	30 to 300 nM	30 to 300 nM
N[C@@H]1CCC[C@H]1c1sc2c(NCc3ccco3)cc(Cl)nc2c1Br [Compound 155, 2-((1R,2R)-2-aminocyclopentyl)-3-bromo-5-chloro-N-(furan-2-ylmethyl)thieno[3,2-b]pyridin-7-amine]	300 to 1000 nM	> 1000 nM
N[C@H]1COCC[C@@H]1c1sc2c(NCc3ccco3)cc(Cl)nc2c1Br [Compound 238, 2-((3R,4S)-3-aminotetrahydro-2H-pyran-4-yl)-3-bromo-5-chloro-N-(furan-2-ylmethyl)thieno[3,2-b]pyridin-7-amine]	30 to 300 nM	≤ 30 nM
N[C@@H]1COCC[C@H]1c1sc2c(NCc3ccco3)cc(Cl)nc2c1Cl [Compound 410, 2-((3S,4R)-3-aminotetrahydro-2H-pyran-4-yl)-3,5-dichloro-N-(furan-2-ylmethyl)thieno[3,2-b]pyridin-7-amine]	30 to 300 nM	30 to 300 nM
N[C@@H]1CCCC[C@H]1c1sc2c(NCc3cccs3)cc(Cl)nc2c1C(F)(F)F.N[C@H]1CCCC[C@@H]1c1sc2c(NCc3cccs3)cc(Cl)nc2c1C(F)(F)F (mixture of isomers) [Compound 356, 2-((1S,2S)-2-aminocyclohexyl)-5-chloro-N-(thiophen-2-ylmethyl)-3-(trifluoromethyl)thieno[3,2-b]pyridin-7-amine and 2-((1R,2R)-2-aminocyclohexyl)-5-chloro-N-(thiophen-2-ylmethyl)-3-(trifluoromethyl)thieno[3,2-b]pyridin-7-amine]	30 to 300 nM	30 to 300 nM
(2R,3S)-2-amino-3-(3-bromo-5-chloro-7-((thiophen-2-ylmethyl)amino)thieno[3,2-b]pyridin-2-yl)cyclohexan-1-one and (2S,3R)-2-amino-3-(3-bromo-5-chloro-7-((thiophen-2-ylmethyl)amino)thieno[3,2-b]pyridin-2-yl)cyclohexan-1-one [Compound 192]	≤ 30 nM	≤ 30 nM
2-((1R,2R)-2-amino-4,4-dimethylcyclohexyl)-3-bromo-5-chloro-N-(thiophen-2-ylmethyl)thieno[3,2-b]pyridin-7-amine and 2-((1S,2S)-2-amino-4,4-dimethylcyclohexyl)-3-bromo-5-chloro-N-(thiophen-2-ylmethyl)thieno[3,2-b]pyridin-7-amine [Compound 152]	30 to 300 nM	30 to 300 nM
[2H]C1=C([2H])C([2H])([2H])[C@@H](c2sc3c(NCc4ccco4)nc(Cl)nc3c2C)[C@H](N)C1([2H])[2H] [Compound 449, 6-((1R,6R)-6-aminocyclohex-3-en-1-yl-2,2,3,4,5,5-d6)-2-chloro-N-(furan-2-ylmethyl)-7-methylthieno[3,2-d]pyrimidin-4-amine]	300 to 1000 nM	30 to 300 nM

Continued, values first:

IC50 (ATXN3 pre-mRNA)	IC50 [1]	Molecule
≤ 30 nM	≤ 30 nM	N[C@H]1CCC[C@@H]1c1sc2c(NCc3ccco3)cc(Cl)nc2c1Br [Compound 165, 2-((1S,2S)-2-aminocyclopentyl)-3-bromo-5-chloro-N-(furan-2-ylmethyl)thieno[3,2-b]pyridin-7-amine]
≤ 30 nM	≤ 30 nM	N[C@H]1CCOC[C@@H]1c1sc2c(NCc3ccccc3)cc(Cl)nc2c1Cl [Compound 218, 2-((3R,4S)-4-aminotetrahydro-2H-pyran-3-yl)-N-benzyl-3,5-dichlorothieno[3,2-b]pyridin-7-amine]
30 to 300 nM	30 to 300 nM	6-((1R,2R)-2-aminocyclohexyl)-N-benzyl-2-chloro-7-methylthieno[3,2-d]pyrimidin-4-amine or 6-((1S,2S)-2-aminocyclohexyl)-N-benzyl-2-chloro-7-methylthieno[3,2-d]pyrimidin-4-amine [Compound 48]
30 to 300 nM	30 to 300 nM	N[C@H]1CCCO[C@@H]1c1c(Cl)c2nc(Cl)cc(NCc3cccs3)c2n1C(F)F [Compound 262, 2-((2S,3S)-3-aminotetrahydro-2H-pyran-2-yl)-3,5-dichloro-1-(difluoromethyl)-N-(thiophen-2-ylmethyl)-1H-pyrrolo[3,2-b]pyridin-7-amine]
30 to 300 nM	30 to 300 nM	Cc1c([C@@H]2[C@@H](N)CCCC2(F)F)sc2c(NCc3cccs3)cc(Cl)nc12 [Compound 338, 2-((1R,6S)-6-amino-2,2-difluorocyclohexyl)-5-chloro-3-methyl-N-(thiophen-2-ylmethyl)thieno[3,2-b]pyridin-7-amine]
≤ 30 nM	≤ 30 nM	N[C@@H]1CC=CC[C@H]1c1sc2c(NCc3cccs3)cc(Cl)nc2c1C#CCCCO.N[C@H]1CC=CC[C@@H]1c1sc2c(NCc3cccs3)cc(Cl)nc2c1C#CCCCO (mixture of isomers) [Compound 175, 5-(2-((1R,6R)-6-aminocyclohex-3-en-1-yl)-5-chloro-7-((thiophen-2-ylmethyl)amino)thieno[3,2-b]pyridin-3-yl)pent-4-yn-1-ol and 5-(2-((1S,6S)-6-aminocyclohex-3-en-1-yl)-5-chloro-7-((thiophen-2-ylmethyl)amino)thieno[3,2-b]pyridin-3-yl)pent-4-yn-1-ol]
